Several values for one entry are separate records, joined by “and”; a condition that tells them apart may be missing. Equal entries are not always repeated. Toxic doses and inconclusive results are not listed. Rule as the data show it: active = T/C of 150% or more; inactive = T/C below 125%.
System: L1210 leukemia ip in BDF1 mice, survival T/C
Test: NCI In Vivo Anticancer Drug Screen. Data for tumor model L1210 Leukemia (intraperitoneal) in B6D2F1 (BDF1) mice
Settings: endpoint: mean survival time, higher = longer survival
Procedure, shortened: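 Transplantable tumor model; survival measured in treated vs vehicle control mice. Value = treated/control.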

[1] = dose: 100.0 mg/kg/injection, schedule: Q01DX001 (ip), vehicle: carboxymethylcellulose (CMC)
[2] = dose: 200.0 mg/kg/injection, schedule: Q01DX001 (ip), vehicle: carboxymethylcellulose (CMC)
[3] = dose: 400.0 mg/kg/injection, schedule: Q01DX001 (ip), vehicle: carboxymethylcellulose (CMC)
[4] = dose: 25.0 mg/kg/injection, schedule: Q01DX009 (ip), vehicle: Klucel (hydroxypropylcellulose) (HPC)
[5] = dose: 50.0 mg/kg/injection, schedule: Q01DX009 (ip), vehicle: Klucel (hydroxypropylcellulose) (HPC)
[6] = dose: 100.0 mg/kg/injection, schedule: Q01DX001 (ip), vehicle: saline
[7] = dose: 200.0 mg/kg/injection, schedule: Q01DX001 (ip), vehicle: saline

Measured: T/C

Cc1ccc(NC(=O)Nc2ccccc2F)cc1NC(=O)Nc1ccccc1F
inactive: dose: 100.0 mg/kg/injection, schedule: Q01DX009 (ip), vehicle: saline with Tween-80 93 % of control | dose: 200.0 mg/kg/injection, schedule: Q01DX009 (ip), vehicle: saline with Tween-80 88 % of control | dose: 400.0 mg/kg/injection, schedule: Q01DX009 (ip), vehicle: saline with Tween-80 94 % of control

CC(=O)Nc1cc(F)c2c(c1)Cc1cc(F)ccc1-2
inactive: dose: 50.0 mg/kg/injection, schedule: Q01DX001 (ip), vehicle: carboxymethylcellulose (CMC) 102 % of control | [1] 98 % of control | [2] 93 % of control | [3] 93 % of control

O=C1CCC(OC(=O)c2ccccc2)CCN1 (stereo not given)
inactive: dose: 100.0 mg/kg/injection, schedule: Q01DX001 (ip), vehicle: acetone 102 % of control | dose: 200.0 mg/kg/injection, schedule: Q01DX001 (ip), vehicle: acetone 96 % of control | dose: 400.0 mg/kg/injection, schedule: Q01DX001 (ip), vehicle: acetone 94 % of control

CCCCOP(=O)(CCCC)OCCCC
inactive: dose: 12.5 mg/kg/injection, schedule: Q01DX009 (ip), vehicle: saline with Tween-80 103 % of control | dose: 12.5 mg/kg/injection, schedule: Q04DX003 (ip), vehicle: saline with Tween-80 86 % of control | dose: 25.0 mg/kg/injection, schedule: Q01DX009 (ip), vehicle: saline with Tween-80 92 % of control | dose: 25.0 mg/kg/injection, schedule: Q04DX003 (ip), vehicle: saline with Tween-80 104 % of control | dose: 50.0 mg/kg/injection, schedule: Q01DX009 (ip), vehicle: saline with Tween-80 92 % of control | dose: 50.0 mg/kg/injection, schedule: Q04DX003 (ip), vehicle: saline with Tween-80 93 % of control and 94 % of control

O=C1CCC(=O)N1c1ccc(Cl)cc1
inactive: dose: 12.5 mg/kg/injection, schedule: Q01DX009 (ip), vehicle: Klucel (hydroxypropylcellulose) (HPC) 107 % of control | [4] 98 % of control | [5] 101 % of control

C1CCCC(=[N+]2CCCC2)CCC1
inactive: dose: 100.0 mg/kg/injection, schedule: Q01DX009 (ip), vehicle: saline 100 % of control

CN(C)C(=O)NNC(=O)c1ccc(Cl)cc1
inactive: dose: 100.0 mg/kg/injection, schedule: Q04DX003 (ip), vehicle: saline with Tween-80 100 % of control | dose: 200.0 mg/kg/injection, schedule: Q04DX003 (ip), vehicle: saline with Tween-80 95 % of control

NN(C(=O)c1ccc([N+](=O)[O-])cc1)c1ccccc1
inactive: dose: 75.0 mg/kg/injection, schedule: Q01DX001 (ip), vehicle: saline 95 % of control | dose: 150.0 mg/kg/injection, schedule: Q01DX001 (ip), vehicle: saline 93 % of control | dose: 300.0 mg/kg/injection, schedule: Q01DX001 (ip), vehicle: saline 90 % of control

COc1cc(C(=O)N(C)OC)cc(OC)c1OC
inactive: [1] 96 % of control | [2] 91 % of control | [3] 100 % of control

CC(=O)c1coc(=O)cc1O
inactive: [4] 102 % of control | dose: 25.0 mg/kg/injection, schedule: Q04DX003 (ip), vehicle: Klucel (hydroxypropylcellulose) (HPC) 97 % of control | [5] 98 % of control | dose: 50.0 mg/kg/injection, schedule: Q04DX003 (ip), vehicle: Klucel (hydroxypropylcellulose) (HPC) 97 % of control | dose: 100.0 mg/kg/injection, schedule: Q01DX001 (ip), vehicle: Klucel (hydroxypropylcellulose) (HPC) 103 % of control | dose: 100.0 mg/kg/injection, schedule: Q01DX009 (ip), vehicle: Klucel (hydroxypropylcellulose) (HPC) 98 % of control | dose: 100.0 mg/kg/injection, schedule: Q04DX003 (ip), vehicle: Klucel (hydroxypropylcellulose) (HPC) 100 % of control

C1[CH2][Hg][CH2]CO1
inactive: dose: 100.0 mg/kg/injection, schedule: Q04DX002 (ip), vehicle: saline 100 % of control | dose: 200.0 mg/kg/injection, schedule: Q04DX002 (ip), vehicle: saline 100 % of control

C/C=C(\Br)C(=O)Nc1ccc(OCC)cc1
inactive: [6] 100 % of control | [7] 105 % of control

CN(C)N=Nc1ccc(C(=O)NC(CCC(=O)NN)C(=O)NN)cc1 (stereo not given)
inactive: [6] 96 % of control | [7] 111 % of control | dose: 400.0 mg/kg/injection, schedule: Q01DX001 (ip), vehicle: saline 94 % of control

C#CCN1CCCC1
inactive: dose: 12.5 mg/kg/injection, schedule: Q04DX003 (ip), vehicle: saline 92 % of control | dose: 25.0 mg/kg/injection, schedule: Q04DX003 (ip), vehicle: saline 92 % of control | dose: 50.0 mg/kg/injection, schedule: Q04DX003 (ip), vehicle: saline 95 % of control

Source: PubChem BioAssay AID248 (DTP/NCI, 2004)
